# From publication PMC11007773 (ACS Omega, 2024)
# Molecular target: Human transferrin (Htf) (Homo sapiens, UniProt P02787)
# Assay: isothermal titration calorimetry
# Assay type: binding
# Chain of Human transferrin (Htf) (P02787 20-698): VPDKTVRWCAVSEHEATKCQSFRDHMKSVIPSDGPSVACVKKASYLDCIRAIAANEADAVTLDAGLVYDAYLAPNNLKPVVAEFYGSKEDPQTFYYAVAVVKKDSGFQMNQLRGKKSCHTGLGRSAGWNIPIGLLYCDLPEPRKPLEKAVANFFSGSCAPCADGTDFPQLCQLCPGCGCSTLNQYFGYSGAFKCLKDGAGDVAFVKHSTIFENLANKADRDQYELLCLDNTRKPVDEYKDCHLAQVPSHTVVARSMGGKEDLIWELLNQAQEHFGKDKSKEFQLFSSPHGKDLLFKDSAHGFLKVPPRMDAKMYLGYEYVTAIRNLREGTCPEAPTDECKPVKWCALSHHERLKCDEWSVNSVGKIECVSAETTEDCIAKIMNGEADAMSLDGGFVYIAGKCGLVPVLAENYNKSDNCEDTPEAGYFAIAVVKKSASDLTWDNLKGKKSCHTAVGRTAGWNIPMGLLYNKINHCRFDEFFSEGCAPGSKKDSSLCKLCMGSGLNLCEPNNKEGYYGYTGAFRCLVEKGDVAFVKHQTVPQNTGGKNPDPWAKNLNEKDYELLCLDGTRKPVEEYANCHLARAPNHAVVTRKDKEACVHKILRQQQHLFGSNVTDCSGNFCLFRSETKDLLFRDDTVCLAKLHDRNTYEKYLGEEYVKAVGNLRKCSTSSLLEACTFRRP
structure (smiles),measurement,value
O=c1oc2c(O)c(O)cc3c(=O)oc4c(O)c(O)cc1c4c23 [Ellagic acid],Kd,1.45 µM
